# Experiments:
# TAZ = settings: HT29 cells, six hours; cited from earlier work
# Yap1 = Yap1 protein levels in KP230 cells (western blot, immunofluorescence); format: cell-based, mouse; settings: 72 hours
# Excerpt: (§1) YAP1 cell culture and treatments: Eisinger lab: Murine KP230 cells, a Yap1-dependent cancer cell line, were derived from a tumor from the KP mouse model (Kras^G12/D; Trp53^f/fl), as described in Eisinger-Mathason, T. S. K. et al., Proc. Natl. Acad. Sci. U.S.A 112 (2015): E3402-11, which is hereby incorporated by reference in its entirety. STS-109 UPS cells were derived from a human UPS tumor and validated by Rebecca Gladdy, MD (Sinai Health System, Toronto, Ontario, Canada). TC32 cells were a gift from Patrick Grohar, MD, PhD (Children's Hospital of Philadelphia). HT-1080, HCT-116, and HEK293T cells were purchased from ATCC. KP230, HT-1080, and HEK-293T cells were grown in DMEM with 10% FBS, 1% L-glutamine, and 1% penicillin/streptomycin (P/S). STS-109 cells were cultured in DMEM with 20% FBS, 1% L-glutamine, and 1% P/S. TC32 cells were grown in RPMI with 10% FBS, 1% L-glutamine, and 1% P/S. HCT-116 cells were cultured in McCoy's 5A medium with 10% FBS and 1% P/S. All cells were confirmed to be negative for mycoplasma contamination and were maintained in an incubator at 37C with 5% CO2. […]
# YAP1-related Western blotting: The cells were lysed in RIPA buffer (Pierce) supplemented with Halt Protease inhibitor cocktail and Halt Phosphatase inhibitor cocktail. […] The protein concentration of each sample was quantified using the Pierce BCA protein assay (Thermo Fisher). […]
# [1] = system: H9 human pluripotent stem cells; test: qPCR of YAP1, CTGF and CYR61 in H9 hPSCs; format: cell-based; settings: 24 hrs
# Method: H9 hPSCs (WiCell) were maintained on vitronectin (Thermo Fisher)-coated plates in Essential 8 (E8) medium. The cells were routinely passaged using 0.5 mM EDTA and treated with 5 μM Y-27632 dihydrochloride (Tocris) on the first day. For testing the effects of the small molecules, H9 hPSCs were seeded at 50K cells/cm^2 on vitronectin-coated plates in E8 medium supplemented with 5 μM Y-27632 dihydrochloride (day 0). On day 1, the medium was switched to E8 medium. On day 2, the medium was switched to E8 medium supplemented with the small molecules. Following overnight incubation, the cells were collected for subsequent analysis on day 3.
# The RNA was extracted using TRIzol (Life Technologies) and Direct-zol™ RNA MiniPrep kit (Zymo Research) as per manufacturer instructions. The RNA was reverse transcribed using iScript cDNA synthesis kit (Bio-Rad). The qPCR was performed on CFX Connect (Bio-Rad) using iTaq Universal SYBR Green Supermix (Bio-Rad). GAPDH was used as a reference gene for normalization. The relative gene expression levels were determined using the ddCt method.
# KP230 cells = test: RNA sequencing and gene set enrichment analysis in KP230 cells; format: cell-based, mouse; settings: 10 μM daily for 72 hours
# Excerpt: as §1, with “CO2. For experimental purposes, cells were cultured for up to 20 passages before being discarded, and were grown to approximately 50% confluence to circumvent the effects of high cell density on Yap1 expression and activity.” for “CO2.”
# TEAD-YAP interaction = settings: HEK-TIYL cells, PubChem; cited from earlier work
smiles,measurement,setting,value
"c1ccc(CNc2ncnc3ccccc23)cc1 [BRD-K43796186, N-benzylquinazolin-4-amine]",TAZ mRNA z-score,TAZ,2.04
same,Yap1 protein levels,Yap1,reduced
same,YAP1 expression,[1],did not affect
same,expression of YAP1 target genes (CTGF and CYR61),[1],increased the expression of YAP1 target genes (CTGF and CYR61) in a dose-dependent manner
same,pathways down-regulated (GSEA),KP230 cells,"epithelial-mesenchymal transition, angiogenesis, and glycolysis"
same,pathways up-regulated (GSEA),KP230 cells,interferon alpha and gamma responses
same,inhibitors of TEAD-YAP interaction,TEAD-YAP interaction,showed activity

# Source: US20230255970A1, “COMPOSITIONS AND METHODS FOR TREATING PROLIFERATIVE DISEASES” (The Broad Institute, Inc., priority 2020, published 2023)
